Reference: ChEMBL document CHEMBL2163199, “Moderate chemical modifications of WAY-100635 improve the selectivity for 5-HT1A versus D4 receptors” (Bioorg Med Chem Lett, 2012)
pKi: −log10 of the molar value. Active and inactive are the calls of the source. No cut-off for these calls is given here.

How the values were obtained:
[1] = buffer, pH 7.4
Description: Lipophilicity, log K of the compound in 50 mM PBS at pH 7.4-10 to 60% methanol mixture by HPLC method

D(4) dopamine receptor [2] = biological target: T1, D(4) dopamine receptor (Homo sapiens, UniProt P21917); assay: biochemical
T1 sequence (P21917 whole entry): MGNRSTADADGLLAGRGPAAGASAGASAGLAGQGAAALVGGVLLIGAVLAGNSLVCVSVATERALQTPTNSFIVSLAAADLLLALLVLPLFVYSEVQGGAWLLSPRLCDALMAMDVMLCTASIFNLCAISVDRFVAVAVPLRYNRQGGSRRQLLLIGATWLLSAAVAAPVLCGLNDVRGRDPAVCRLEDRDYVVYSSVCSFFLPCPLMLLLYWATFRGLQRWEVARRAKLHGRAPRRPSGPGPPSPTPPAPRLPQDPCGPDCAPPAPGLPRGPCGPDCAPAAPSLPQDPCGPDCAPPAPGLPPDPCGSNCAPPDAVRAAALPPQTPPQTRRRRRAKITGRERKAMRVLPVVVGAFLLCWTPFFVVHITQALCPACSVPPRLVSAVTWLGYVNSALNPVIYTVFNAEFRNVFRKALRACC
Description: Displacement of [3H]-YM-09151-2 from human cloned D4 receptor expressed in Sf9 cells after 60 mins by liquid scintillation counting

[3] = biological target: T2, 5-hydroxytryptamine receptor 1A (Homo sapiens, UniProt P08908); assay: biochemical
T2 sequence (P08908 whole entry): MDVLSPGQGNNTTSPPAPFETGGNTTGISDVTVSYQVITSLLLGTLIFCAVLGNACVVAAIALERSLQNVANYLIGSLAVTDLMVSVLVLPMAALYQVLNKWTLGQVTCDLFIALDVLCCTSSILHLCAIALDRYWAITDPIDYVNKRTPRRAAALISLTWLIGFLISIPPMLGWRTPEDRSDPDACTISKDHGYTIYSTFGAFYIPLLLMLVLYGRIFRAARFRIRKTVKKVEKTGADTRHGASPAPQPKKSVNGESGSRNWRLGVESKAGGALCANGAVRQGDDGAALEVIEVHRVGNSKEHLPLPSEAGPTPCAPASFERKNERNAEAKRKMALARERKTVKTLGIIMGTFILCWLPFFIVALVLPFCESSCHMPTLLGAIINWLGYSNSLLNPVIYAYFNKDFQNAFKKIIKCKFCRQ
Description: Displacement of [3H]8-OH-DPAT from human cloned 5-HT1A receptor expressed in CHO cells after 60 mins by liquid scintillation counting

[4] = biological target: Muscarinic acetylcholine receptor M5 (Homo sapiens) (UniProt P08912); assay: Binding affinity to muscarinic M5 receptor at 10 uM by radioligand binding assay
[5] = biological target: Muscarinic acetylcholine receptor M4 (Homo sapiens) (UniProt P08173); assay: Binding affinity to muscarinic M4 receptor at 10 uM by radioligand binding assay
[6] = biological target: Muscarinic acetylcholine receptor M3 (Homo sapiens) (UniProt P20309); assay: Binding affinity to muscarinic M3 receptor at 10 uM by radioligand binding assay
[7] = biological target: Muscarinic acetylcholine receptor M2 (Homo sapiens) (UniProt P08172); assay: Binding affinity to muscarinic M2 receptor at 10 uM by radioligand binding assay
[8] = biological target: Muscarinic acetylcholine receptor M1 (Homo sapiens) (UniProt P11229); assay: Binding affinity to muscarinic M1 receptor at 10 uM by radioligand binding assay
Muscarinic acetylcholine receptor M1 (Homo sapiens), sequence (P11229 whole entry): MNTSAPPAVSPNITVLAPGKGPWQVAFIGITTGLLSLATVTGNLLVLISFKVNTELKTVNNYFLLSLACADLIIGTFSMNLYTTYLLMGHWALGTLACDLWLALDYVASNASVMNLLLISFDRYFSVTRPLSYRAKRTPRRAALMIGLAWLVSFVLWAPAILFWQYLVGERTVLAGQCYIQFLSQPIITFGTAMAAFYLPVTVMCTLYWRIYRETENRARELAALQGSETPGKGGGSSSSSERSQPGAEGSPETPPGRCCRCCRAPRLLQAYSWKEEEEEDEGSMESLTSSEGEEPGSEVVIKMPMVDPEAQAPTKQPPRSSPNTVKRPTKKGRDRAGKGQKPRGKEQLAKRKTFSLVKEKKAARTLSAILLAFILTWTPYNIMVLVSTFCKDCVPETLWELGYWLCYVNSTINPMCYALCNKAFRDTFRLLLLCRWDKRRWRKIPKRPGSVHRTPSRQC

[9] = Binding affinity to GABAA receptor at 10 uM by radioligand binding assay
[10] = Binding affinity to sigma 2 receptor at 10 uM by radioligand binding assay
[11] = biological target: Sigma non-opioid intracellular receptor 1 (Homo sapiens) (UniProt Q99720); assay: Binding affinity to sigma 1 receptor at 10 uM by radioligand binding assay
[12] = biological target: Histamine H3 receptor (Homo sapiens) (UniProt Q9Y5N1); assay: Binding affinity to histamine H3 receptor at 10 uM by radioligand binding assay
[13] = biological target: Sodium-dependent dopamine transporter (Homo sapiens) (UniProt Q01959); assay: Binding affinity to DAT at 10 uM by radioligand binding assay
[14] = biological target: D(1B) dopamine receptor (Homo sapiens) (UniProt P21918); assay: Binding affinity to dopamine D5 receptor at 10 uM by radioligand binding assay
D(1B) dopamine receptor (Homo sapiens), sequence (P21918 whole entry): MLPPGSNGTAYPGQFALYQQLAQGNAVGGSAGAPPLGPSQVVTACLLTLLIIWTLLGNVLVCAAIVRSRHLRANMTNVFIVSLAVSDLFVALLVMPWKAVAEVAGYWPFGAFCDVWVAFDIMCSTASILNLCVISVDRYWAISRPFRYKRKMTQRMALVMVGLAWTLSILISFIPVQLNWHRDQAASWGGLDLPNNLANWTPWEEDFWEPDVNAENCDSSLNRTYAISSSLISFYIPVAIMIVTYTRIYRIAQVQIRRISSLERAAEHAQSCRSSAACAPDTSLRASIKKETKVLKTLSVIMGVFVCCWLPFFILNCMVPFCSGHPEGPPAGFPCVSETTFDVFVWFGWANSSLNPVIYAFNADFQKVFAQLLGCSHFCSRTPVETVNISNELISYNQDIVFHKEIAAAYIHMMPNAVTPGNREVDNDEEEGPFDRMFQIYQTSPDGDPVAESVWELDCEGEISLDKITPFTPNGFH

[15] = biological target: D(3) dopamine receptor (Homo sapiens) (UniProt P35462); assay: Binding affinity to dopamine D3 receptor at 10 uM by radioligand binding assay
[16] = biological target: D(2) dopamine receptor (Homo sapiens) (UniProt P14416); assay: Binding affinity to dopamine D2 receptor at 10 uM by radioligand binding assay
[17] = biological target: D(1A) dopamine receptor (Homo sapiens) (UniProt P21728); assay: Binding affinity to dopamine D1 receptor at 10 uM by radioligand binding assay
[18] = biological target: Beta-3 adrenergic receptor (Homo sapiens) (UniProt P13945); assay: Binding affinity to adrenergic beta3 receptor at 10 uM by radioligand binding assay
Beta-3 adrenergic receptor (Homo sapiens), sequence (P13945 whole entry, looked up): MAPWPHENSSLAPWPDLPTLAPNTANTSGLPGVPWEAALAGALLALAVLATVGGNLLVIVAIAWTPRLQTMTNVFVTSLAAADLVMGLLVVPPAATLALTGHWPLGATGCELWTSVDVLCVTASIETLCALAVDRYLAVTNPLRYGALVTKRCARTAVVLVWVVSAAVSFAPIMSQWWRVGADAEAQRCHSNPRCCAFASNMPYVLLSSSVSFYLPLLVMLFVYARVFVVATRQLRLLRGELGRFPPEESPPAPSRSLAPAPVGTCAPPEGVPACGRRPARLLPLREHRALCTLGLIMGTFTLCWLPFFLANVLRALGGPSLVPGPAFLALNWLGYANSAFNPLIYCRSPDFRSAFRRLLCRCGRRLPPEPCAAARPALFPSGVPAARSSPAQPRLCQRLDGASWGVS

[19] = biological target: Beta-1 adrenergic receptor (Homo sapiens) (UniProt P08588); assay: Binding affinity to adrenergic beta1 receptor at 10 uM by radioligand binding assay
Beta-1 adrenergic receptor (Homo sapiens), sequence (P08588 whole entry, looked up): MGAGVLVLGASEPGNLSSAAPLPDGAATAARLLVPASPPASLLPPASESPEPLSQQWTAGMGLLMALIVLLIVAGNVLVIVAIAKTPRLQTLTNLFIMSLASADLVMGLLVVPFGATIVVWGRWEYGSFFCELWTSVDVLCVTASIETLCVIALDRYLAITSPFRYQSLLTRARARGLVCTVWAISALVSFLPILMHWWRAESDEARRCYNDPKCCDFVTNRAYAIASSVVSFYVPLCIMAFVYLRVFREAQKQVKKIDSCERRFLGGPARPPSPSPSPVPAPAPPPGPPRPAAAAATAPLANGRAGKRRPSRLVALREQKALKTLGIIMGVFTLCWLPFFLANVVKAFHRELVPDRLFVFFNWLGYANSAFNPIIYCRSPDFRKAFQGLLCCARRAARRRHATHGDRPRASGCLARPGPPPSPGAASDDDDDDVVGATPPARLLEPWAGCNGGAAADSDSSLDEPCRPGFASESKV

[20] = biological target: Beta-2 adrenergic receptor (Homo sapiens) (UniProt P07550); assay: Binding affinity to adrenergic beta2 receptor at 10 uM by radioligand binding assay
Beta-2 adrenergic receptor (Homo sapiens), sequence (P07550 whole entry, looked up): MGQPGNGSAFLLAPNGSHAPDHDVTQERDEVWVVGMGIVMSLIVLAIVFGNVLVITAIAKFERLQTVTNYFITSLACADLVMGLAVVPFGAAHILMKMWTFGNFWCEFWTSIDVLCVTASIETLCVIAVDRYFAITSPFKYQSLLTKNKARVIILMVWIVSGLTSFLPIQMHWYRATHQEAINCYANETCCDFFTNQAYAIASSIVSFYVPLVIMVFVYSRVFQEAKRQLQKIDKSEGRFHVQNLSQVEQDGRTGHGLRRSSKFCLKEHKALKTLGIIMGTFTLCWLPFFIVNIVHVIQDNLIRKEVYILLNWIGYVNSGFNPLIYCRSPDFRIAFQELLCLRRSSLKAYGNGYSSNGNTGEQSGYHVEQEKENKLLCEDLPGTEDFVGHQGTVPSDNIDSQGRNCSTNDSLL

[21] = biological target: Alpha-2B adrenergic receptor (Homo sapiens) (UniProt P18089); assay: Binding affinity to adrenergic alpha2B receptor at 10 uM by radioligand binding assay
Alpha-2B adrenergic receptor (Homo sapiens), sequence (P18089 whole entry): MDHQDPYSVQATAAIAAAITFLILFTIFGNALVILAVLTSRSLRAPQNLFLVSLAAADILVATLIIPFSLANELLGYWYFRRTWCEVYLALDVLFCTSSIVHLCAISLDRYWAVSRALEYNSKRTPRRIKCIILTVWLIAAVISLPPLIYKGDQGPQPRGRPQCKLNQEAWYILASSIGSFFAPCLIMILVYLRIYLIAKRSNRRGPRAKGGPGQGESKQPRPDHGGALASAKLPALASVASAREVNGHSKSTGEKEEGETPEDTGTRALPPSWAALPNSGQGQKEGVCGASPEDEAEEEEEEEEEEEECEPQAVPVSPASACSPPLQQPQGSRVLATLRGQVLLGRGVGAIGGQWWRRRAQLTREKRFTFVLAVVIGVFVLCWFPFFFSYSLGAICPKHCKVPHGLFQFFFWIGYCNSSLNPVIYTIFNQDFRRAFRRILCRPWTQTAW

[22] = biological target: Alpha-2A adrenergic receptor (Homo sapiens) (UniProt P08913); assay: Binding affinity to adrenergic alpha2A receptor at 10 uM by radioligand binding assay
[23] = biological target: Alpha-1A adrenergic receptor (Homo sapiens, UniProt P35348); assay: Binding affinity to adrenergic alpha1A receptor by radioligand binding assay; details: read-out: Ki(app)
[24] = biological target: 5-hydroxytryptamine receptor 6 (Homo sapiens) (UniProt P50406); assay: Binding affinity to 5HT6 receptor at 10 uM by radioligand binding assay
5-hydroxytryptamine receptor 6 (Homo sapiens), sequence (P50406 whole entry): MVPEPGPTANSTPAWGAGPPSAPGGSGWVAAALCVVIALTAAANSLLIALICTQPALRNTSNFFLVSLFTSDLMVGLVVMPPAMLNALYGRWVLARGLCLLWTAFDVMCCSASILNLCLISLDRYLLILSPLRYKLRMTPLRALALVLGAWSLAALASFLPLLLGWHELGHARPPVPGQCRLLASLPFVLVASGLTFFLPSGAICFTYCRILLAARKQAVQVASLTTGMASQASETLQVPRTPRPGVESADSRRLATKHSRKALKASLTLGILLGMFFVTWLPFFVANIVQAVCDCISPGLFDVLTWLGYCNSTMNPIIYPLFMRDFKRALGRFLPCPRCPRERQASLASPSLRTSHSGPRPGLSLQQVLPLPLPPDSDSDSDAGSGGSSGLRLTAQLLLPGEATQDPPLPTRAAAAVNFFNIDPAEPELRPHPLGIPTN

[25] = biological target: 5-hydroxytryptamine receptor 5A (Homo sapiens) (UniProt P47898); assay: Binding affinity to 5HT5A receptor at 10 uM by radioligand binding assay
5-hydroxytryptamine receptor 5A (Homo sapiens), sequence (P47898 whole entry): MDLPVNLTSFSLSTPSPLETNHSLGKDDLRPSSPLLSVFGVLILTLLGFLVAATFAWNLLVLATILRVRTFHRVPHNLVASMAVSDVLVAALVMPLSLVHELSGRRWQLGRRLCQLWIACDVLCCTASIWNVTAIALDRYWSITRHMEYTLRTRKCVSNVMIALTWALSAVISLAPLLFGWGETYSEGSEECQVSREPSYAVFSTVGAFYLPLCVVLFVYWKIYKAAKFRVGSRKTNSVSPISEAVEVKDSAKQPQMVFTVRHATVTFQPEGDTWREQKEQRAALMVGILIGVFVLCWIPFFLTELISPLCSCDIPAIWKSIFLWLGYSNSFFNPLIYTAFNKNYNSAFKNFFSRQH

[26] = biological target: 5-hydroxytryptamine receptor 3A (Homo sapiens) (UniProt P46098); assay: Binding affinity to 5HT3 receptor at 10 uM by radioligand binding assay
5-hydroxytryptamine receptor 3A (Homo sapiens), sequence (P46098 whole entry): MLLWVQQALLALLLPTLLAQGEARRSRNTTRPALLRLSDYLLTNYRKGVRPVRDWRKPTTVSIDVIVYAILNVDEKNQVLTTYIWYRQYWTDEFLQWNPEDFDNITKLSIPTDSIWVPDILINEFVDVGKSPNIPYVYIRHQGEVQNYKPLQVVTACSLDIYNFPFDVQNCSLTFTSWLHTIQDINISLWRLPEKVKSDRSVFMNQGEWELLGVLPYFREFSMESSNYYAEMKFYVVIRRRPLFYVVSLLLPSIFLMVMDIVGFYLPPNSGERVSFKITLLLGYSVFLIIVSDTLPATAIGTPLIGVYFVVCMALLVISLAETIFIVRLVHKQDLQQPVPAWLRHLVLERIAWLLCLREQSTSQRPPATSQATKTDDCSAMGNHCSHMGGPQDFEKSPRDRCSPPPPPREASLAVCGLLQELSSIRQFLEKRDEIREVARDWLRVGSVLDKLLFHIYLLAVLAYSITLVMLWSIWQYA

[27] = biological target: 5-hydroxytryptamine receptor 2C (Homo sapiens) (UniProt P28335); assay: Binding affinity to 5HT2C receptor at 10 uM by radioligand binding assay
[28] = biological target: 5-hydroxytryptamine receptor 2B (Homo sapiens, UniProt P41595); assay: Binding affinity to 5HT2B receptor by radioligand binding assay; details: read-out: Ki(app)
[29] = biological target: 5-hydroxytryptamine receptor 2A (Homo sapiens, UniProt P28223); assay: Binding affinity to 5HT2A receptor by radioligand binding assay; details: read-out: Ki(app)
5-hydroxytryptamine receptor 2A, sequence (P28223 whole entry): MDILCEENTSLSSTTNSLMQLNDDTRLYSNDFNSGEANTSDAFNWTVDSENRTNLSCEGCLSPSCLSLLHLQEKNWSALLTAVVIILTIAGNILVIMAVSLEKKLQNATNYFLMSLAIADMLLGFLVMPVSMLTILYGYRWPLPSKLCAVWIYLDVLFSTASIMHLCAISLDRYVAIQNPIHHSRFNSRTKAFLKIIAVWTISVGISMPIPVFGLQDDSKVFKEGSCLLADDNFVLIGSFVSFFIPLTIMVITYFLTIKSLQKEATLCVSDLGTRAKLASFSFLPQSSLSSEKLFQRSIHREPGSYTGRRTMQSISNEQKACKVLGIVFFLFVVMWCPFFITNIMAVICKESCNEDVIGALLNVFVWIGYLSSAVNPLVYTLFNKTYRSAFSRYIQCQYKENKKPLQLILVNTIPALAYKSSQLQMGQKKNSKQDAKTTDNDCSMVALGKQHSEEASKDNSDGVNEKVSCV

[30] = biological target: 5-hydroxytryptamine receptor 1D (Homo sapiens) (UniProt P28221); assay: Binding affinity to 5HT1D receptor at 10 uM by radioligand binding assay
[31] = biological target: 5-hydroxytryptamine receptor 1E (Homo sapiens) (UniProt P28566); assay: Binding affinity to 5HT1E receptor at 10 uM by radioligand binding assay
[32] = biological target: 5-hydroxytryptamine receptor 1B (Homo sapiens) (UniProt P28222); assay: Binding affinity to 5HT1B receptor at 10 uM by radioligand binding assay
[33] = biological target: T3, 5-hydroxytryptamine receptor 1A (Rattus norvegicus) (UniProt P19327); assay: Agonist activity of 5-HT1A receptor in Wistar rat dorsal raphe serotonergic neuron assessed as inhibition of firing at 1 nM to 1 uM by electrophysiological test; format: functional
T3 sequence (whole entry): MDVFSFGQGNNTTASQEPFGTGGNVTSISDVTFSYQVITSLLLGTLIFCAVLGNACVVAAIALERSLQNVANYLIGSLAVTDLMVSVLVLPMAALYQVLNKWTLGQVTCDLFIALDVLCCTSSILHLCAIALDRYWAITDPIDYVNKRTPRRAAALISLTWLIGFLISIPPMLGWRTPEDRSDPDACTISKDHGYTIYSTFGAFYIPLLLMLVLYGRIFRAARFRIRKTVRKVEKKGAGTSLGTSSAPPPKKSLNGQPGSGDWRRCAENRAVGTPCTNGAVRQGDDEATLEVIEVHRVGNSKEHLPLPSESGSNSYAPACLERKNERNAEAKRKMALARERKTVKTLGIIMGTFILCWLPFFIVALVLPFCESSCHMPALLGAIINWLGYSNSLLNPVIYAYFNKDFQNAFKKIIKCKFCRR

[34] = biological target: T3, 5-hydroxytryptamine receptor 1A (Rattus norvegicus); assay: Antagonist activity of 5-HT1A receptor in Wistar rat dorsal raphe serotonergic neuron assessed as reversal of 8-OH-DPAT-induced decrease in firing rate at 100 nM by electrophysiological test; format: functional; set-up: scale not given: the % may be the effect or the level left
[35] = Binding affinity to rat benzodiazepine binding site at 10 uM by radioligand binding assay
D(4) dopamine receptor [36] = biological target: T1, D(4) dopamine receptor
Description: Binding affinity to dopamine D4 receptor by radioligand binding assay

[37] = biological target: Alpha-1B adrenergic receptor (Homo sapiens, UniProt P35368)
Description: Binding affinity to adrenergic alpha1B receptor by radioligand binding assay

[38] = biological target: 5-hydroxytryptamine receptor 7 (Homo sapiens, UniProt P34969)
5-hydroxytryptamine receptor 7, sequence (P34969 whole entry): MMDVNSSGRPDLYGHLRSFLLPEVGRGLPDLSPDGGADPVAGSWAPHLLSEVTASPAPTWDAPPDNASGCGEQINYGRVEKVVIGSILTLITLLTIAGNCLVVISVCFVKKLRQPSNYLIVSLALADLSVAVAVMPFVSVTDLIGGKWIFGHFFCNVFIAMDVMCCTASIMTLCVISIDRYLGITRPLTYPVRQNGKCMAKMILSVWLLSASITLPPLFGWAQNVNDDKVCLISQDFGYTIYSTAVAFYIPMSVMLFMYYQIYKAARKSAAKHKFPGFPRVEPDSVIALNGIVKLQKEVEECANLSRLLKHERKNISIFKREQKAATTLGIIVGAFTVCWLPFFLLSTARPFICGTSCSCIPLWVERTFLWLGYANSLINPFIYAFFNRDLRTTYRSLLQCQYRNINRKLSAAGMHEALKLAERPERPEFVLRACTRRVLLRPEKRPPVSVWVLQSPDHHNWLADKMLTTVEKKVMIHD
Description: Binding affinity to 5HT7 receptor by radioligand binding assay

[39] = biological target: T2, 5-hydroxytryptamine receptor 1A
Description: Binding affinity to 5HT1A receptor by radioligand binding assay

SMILES: O=C(c1cccc2ccccc12)N(CCN1CCN(c2ccccc2)CC1)c1ccccn1
- log K [1]: 3.27
- pKi (D(4) dopamine receptor [2]): 6.26
- pKi [3]: 7.45

SMILES: O=C(C1CCCCC1)N(CCN1CCN(c2ccccc2)CC1)c1ccccn1
- inhibition [4]: < 50%
- inhibition [5]: < 50%
- inhibition [6]: < 50%
- inhibition [7]: < 50%
- inhibition [8]: < 50%
- inhibition [9]: < 50%
- inhibition [10]: > 50%
- inhibition [11]: > 50%
- inhibition [12]: < 50%
- inhibition [13]: < 50%
- inhibition [14]: < 50%
- inhibition [15]: > 50%
- inhibition [16]: > 50%
- inhibition [17]: < 50%
- inhibition [18]: < 50%
- inhibition [19]: < 50%
- inhibition [20]: < 50%
- inhibition [21]: < 50%
- inhibition [22]: < 50%
- pKi [23]: 6.23
- inhibition [24]: < 50%
- inhibition [25]: < 50%
- inhibition [26]: < 50%
- inhibition [27]: < 50%
- pKi [28]: 6.49
- pKi [29]: 6.74
- inhibition [30]: < 50%
- inhibition [31]: < 50%
- inhibition [32]: < 50%
- inhibition [33]: inactive
- Activity [34]: 44%
- inhibition [35]: < 50%
- pKi (D(4) dopamine receptor [36]): 6.61
- pKi [37]: 5.98
- pKi [38]: 6.70
- pKi [39]: 8.73
- log K [1]: 2.68
- pKi (D(4) dopamine receptor [2]): 6.02
- pKi [3]: 8.92

SMILES: O=C(c1cccc2ccccc12)N(CCN1CC=C(c2ccccc2)CC1)c1ccccn1
- log K [1]: 4.07
- pKi (D(4) dopamine receptor [2]): 6.60
- pKi [3]: 7.85

SMILES: O=C(C1CCCCC1)N(CCN1CC=C(c2ccccc2)CC1)c1ccccn1
- inhibition [4]: < 50%
- inhibition [5]: < 50%
- inhibition [6]: < 50%
- inhibition [7]: < 50%
- inhibition [8]: < 50%
- inhibition [9]: < 50%
- inhibition [10]: > 50%
- inhibition [11]: > 50%
- inhibition [12]: < 50%
- inhibition [13]: < 50%
- inhibition [14]: < 50%
- inhibition [15]: > 50%
- inhibition [16]: > 50%
- inhibition [17]: < 50%
- inhibition [18]: < 50%
- inhibition [19]: < 50%
- inhibition [20]: < 50%
- inhibition [21]: < 50%
- inhibition [22]: < 50%
- pKi [23]: 7.41
- inhibition [24]: < 50%
- inhibition [25]: < 50%
- inhibition [26]: < 50%
- inhibition [27]: < 50%
- pKi [28]: 6.98
- pKi [29]: 7.27
- inhibition [30]: < 50%
- inhibition [31]: < 50%
- inhibition [32]: < 50%
- inhibition [33]: inactive
- Activity [34]: 44%
- inhibition [35]: < 50%
- pKi (D(4) dopamine receptor [36]): 7.26
- pKi [37]: 6.53
- pKi [38]: 7.22
- pKi [39]: 9.16
- log K [1]: 3.84
- pKi (D(4) dopamine receptor [2]): 6.41
- pKi [3]: 9.29

SMILES: O=C(c1ccc2ccccc2c1)N(CCN1CCN(c2ccccc2)CC1)c1ccccn1
- log K [1]: 3.48
- pKi (D(4) dopamine receptor [2]): 6.09
- pKi [3]: 7.79

SMILES: COc1ccccc1N1CCN(CCN(C(=O)c2cnc3ccccc3n2)c2ccccn2)CC1
- log K [1]: 2.61
- pKi (D(4) dopamine receptor [2]): 7.82
- pKi [3]: 8.61

SMILES: O=C(c1ccc2ccccc2c1)N(CCN1CC=C(c2ccccc2)CC1)c1ccccn1
- log K [1]: 4.36
- pKi (D(4) dopamine receptor [2]): 6.54
- pKi [3]: 8.08

SMILES: COc1ccccc1N1CCN(CCN(C(=O)c2ccc3ccccc3c2)c2ccccn2)CC1
- log K [1]: 3.57
- pKi (D(4) dopamine receptor [2]): 6.74
- pKi [3]: 8.79

SMILES: COc1ccccc1N1CCN(CCN(C(=O)c2cccc3ccccc23)c2ccccn2)CC1
- log K [1]: 3.26
- pKi (D(4) dopamine receptor [2]): 7.16
- pKi [3]: 8.72

SMILES: O=C(c1cnc2ccccc2n1)N(CCN1CC=C(c2ccccc2)CC1)c1ccccn1
- log K [1]: 3.33
- pKi (D(4) dopamine receptor [2]): 7.46
- pKi [3]: 8.08

SMILES: O=C(c1cnc2ccccc2n1)N(CCN1CCN(c2ccccc2)CC1)c1ccccn1
- log K [1]: 3.06
- pKi (D(4) dopamine receptor [2]): 7.25
- pKi [3]: 7.44
